Results published in ChEMBL document CHEMBL1201862, “PubChem BioAssay data set” (2004).
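Compound exposure: 48 hours, 5 concentrations, 96-well plates. GI50 marks 50% less growth.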 Activity calls are given as the source filed them. No stated cut-off is given here; in the data, active = GI50 up to about 1.1 µM and inactive = higher.

Legend:
Assay in all cases: NCI tumour cell line growth inhibition, 48 h
[1] = system: SK-OV-3
[2] = system: OVCAR-5
[3] = system: SN12C
[4] = system: COLO 205
[5] = system: NCI-H226
[6] = system: ACHN
[7] = system: HT-29
[8] = system: OVCAR-3
[9] = system: MOLT-4
[10] = system: EKVX
[11] = system: UO-31
[12] = system: NCI-H460
[13] = system: SNB-19
[14] = system: SR

Measured: GI50

O=C(/C=C/c1ccc(Cl)c(Cl)c1)c1ccc(F)cc1
inactive: [1] 29 µM | [2] 18.3 µM | [3] 22.5 µM | [4] 23.3 µM | [5] 33.1 µM | [6] 17.8 µM | [7] 13.3 µM | [8] 18.6 µM | [9] 15.8 µM | [10] 27.4 µM | [11] > 100 µM | [12] 23.6 µM | [13] 16.8 µM

O=C(Cn1ccnc1[N+](=O)[O-])NCc1ccc(F)cc1
inactive: [1] > 100 µM | [2] > 100 µM | [3] > 100 µM | [4] > 100 µM | [5] 40.2 µM | [6] > 100 µM | [7] > 100 µM | [8] 33.5 µM | [9] > 100 µM | [10] > 100 µM | [11] > 100 µM | [12] > 100 µM | [13] > 100 µM

CC1C(O)=C(O)c2ccccc2N1O (stereo unspecified)
inactive: [1] > 100 µM | [2] > 100 µM | [3] > 100 µM | [4] > 100 µM | [5] 37.4 µM | [6] > 100 µM | [7] 12.2 µM | [8] > 100 µM | [9] 77.6 µM | [10] > 100 µM | [11] > 100 µM | [12] > 100 µM | [13] > 100 µM

CC1=NN(C(=O)Nc2ccc(Cl)cc2)C(=O)C2CCC(=O)N12 (stereo unspecified)
inactive: [1] 38.7 µM | [3] > 100 µM | [4] > 100 µM | [6] 5.73 µM | [14] > 100 µM | [8] > 100 µM | [9] 53 µM | [10] > 100 µM | [11] 61.2 µM | [12] 28.3 µM | [13] > 100 µM

C[C@@H](NC1CCC[C@H]1O)c1ccccc1 (stereo partly specified)
inactive: [1] > 100 µM | [2] > 100 µM | [3] > 100 µM | [4] > 100 µM | [5] > 100 µM | [6] > 100 µM | [7] > 100 µM | [8] > 100 µM | [9] > 100 µM | [10] > 100 µM | [11] > 100 µM | [12] > 100 µM | [13] > 100 µM

CCOP(=O)(OCC)C1CCCCOC1=O (stereo unspecified)
inactive: [1] > 100 µM | [3] 95.9 µM | [4] > 100 µM | [6] > 100 µM | [7] > 100 µM | [8] > 100 µM | [9] 33 µM | [10] > 100 µM | [11] > 100 µM | [12] 51.2 µM | [13] > 100 µM

COC(=O)C12C(=O)O[C@H](C)C1(O)C(C)C(=O)N2C (stereo partly specified)
inactive: [1] > 100 µM | [2] > 100 µM | [4] > 100 µM | [7] > 100 µM | [14] > 100 µM | [8] > 100 µM | [9] > 100 µM | [10] > 100 µM | [11] > 100 µM | [13] > 100 µM

CCOc1ccc(NC(=O)C2=C(C)NC(C)=C(C(=O)Nc3ccc(OCC)cc3)C2c2ccc(O)c(OC)c2)cc1
inactive: [1] > 100 µM | [2] > 100 µM | [3] 86.3 µM | [4] 96.8 µM | [5] 40.3 µM | [6] 55.1 µM | [7] > 100 µM | [8] > 100 µM | [9] 28.1 µM | [10] > 100 µM | [11] 52.4 µM | [12] 80.4 µM | [13] > 100 µM

Cc1nc2ccccc2c(=O)n1/N=C(\N=N\c1ccc(Cl)cc1)c1ccc(N(C)C)cc1
inactive: [1] > 100 µM | [3] 56.9 µM | [4] > 100 µM | [6] > 100 µM | [7] > 100 µM | [9] 61.1 µM | [10] > 100 µM | [11] 21.8 µM | [12] 93.8 µM | [13] 48 µM

CC1=C(C(=O)CC(=O)C(=O)Nc2ccccc2)Sc2ccccc2N1
inactive: [1] > 100 µM | [2] > 100 µM | [3] > 100 µM | [4] > 100 µM | [5] > 100 µM | [6] > 100 µM | [7] > 100 µM | [8] > 100 µM | [9] > 100 µM | [10] > 100 µM | [11] > 100 µM | [12] > 100 µM | [13] > 100 µM

C=C(CO)CC(/C=C(\C)CC/C=C(\C)CCl)OC(C)=O (stereo unspecified)
inactive: [1] > 100 µM | [2] > 100 µM | [3] > 100 µM | [4] > 100 µM | [5] > 100 µM | [6] > 100 µM | [7] > 100 µM | [8] > 100 µM | [9] > 100 µM | [10] > 100 µM | [11] > 100 µM | [12] > 100 µM | [13] > 100 µM

Cc1cc(N(CCC#N)CCC#N)ccc1/C=C(/NC(=O)/C=C/c1ccccc1)C(N)=O
inactive: [1] > 100 µM | [2] > 100 µM | [3] > 100 µM | [4] > 100 µM | [5] > 100 µM | [6] > 100 µM | [7] > 100 µM | [8] > 100 µM | [9] > 100 µM | [10] > 100 µM | [11] > 100 µM | [12] > 100 µM | [13] > 100 µM
